In patent publication EP0379351A1, “1,4-Dihydropyridine derivatives” (SYNPHAR LABORATORIES INC., priority 1989, dated 1990):
Where two headings read alike, the source gives them in different places.

Assays:
[1] = General pharmacological screening: anti-inflammatory activity; conditions: result in words
[2] = test system: guinea pig ileal longitudinal smooth muscle; assay: Calcium channel antagonist testing: inhibition of carbachol-induced, muscarinic receptor-mediated Ca2+-dependent contraction of smooth muscle; assay type: cell-based; conditions: for relative potency compared with Nifedipine: calcium antagonist in smooth muscle, Nifedipine = 1
From the text: The compounds of this invention of formulae I and II are suitably prepared, applying modified Hantzsch pyridine synthesis, by reacting the appropriately substituted heterocyclic alkyl acetoacetate or substituted heterocyclic mercapto alkyl acetoacetate with a substituted benzaldehyde derivative and methyl-β-aminocrotonate in isopropanol. The compounds of formula III are suitably prepared by reacting diketene or an alkyldiketene with an appropriately substituted heterocyclic ω-alkanol or substituted heterocyclic mercapto ω-alkanol in benzene. The related sulfoxy and sulfonyl derivatives of formula VI may be prepared by oxidizing the relative mercapto derivative with m-chloroperbenzoic acid in CH₂Cl₂ followed, if required, by further oxidation with potassium permanganate in acetic acid. All the products in this invention are characterized by their respective nmr, ir spectra and their elemental analysis. The relative purity has been determined by HPLC. Calcium antagonistic activity of the compounds was determined at the concentration required to produce 50% inhibition of the muscarinic receptor-mediated Ca²⁺-dependent contraction of guinea pig ileal longitudinal smooth muscle assay.
Calcium channel antagonist activity was determined as the concentration required to produce 50% inhibition of the muscarinic receptor-mediated Ca⁺²-dependent contraction of guinea pig ileal longitudinal smooth muscle assay (C. Triggle, V. Swamy and D. Triggle, Can. J. Physiol. Pharmacol., 1979, 57, 804). Male albino guinea pigs (body weight 300 - 450g) were sacrificed by decapitation. The intestine was removed above the ileocaecal junction. Longitudinal smooth muscle segments of 2cm length were mounted under a resting tension of 300 - 400 mg. The segments were maintained at 37°C in a 10mL jacketed organ bath containing oxygenated (100% O₂) physiological saline solution of the following composition (mM): NaCl: 137; CaCl₂: 2.6; KCl: 5.9; MgCl₂: 1.2; glucose: 11.9; buffered by Hepes-NaOH to pH 7.4. The muscles were equilibrated for 1h with a solution change every 15 min. Two successive control contractions were elicited at 15 min. intervals with 5x10⁻⁷M carbachol. The isometric contractions were recorded with a force displacement transducer (FT 03C) on a GRASS* physiograph. The means of the […] contractile responses was taken as the 100% value for the tonic (slow) component of the response. The muscle was washed with Hepes saline solution and was allowed to re-equilibrate. The calcium antagonist (test compound) was added ten min before the dose-response for carbachol was determined. The drug-induced inhibition of contraction was expressed as percent of control. The ID₅₀ values were graphically determined from the concentration-response curves, in triplicate.

[3] = test system: heart muscle; assay: Ionotropic effect and heart rate on heart muscle; assay type: cell-based; conditions: for heart contractile force / heart rate: at the concentrations which normally exhibit the Ca-blocking effect in smooth muscles; for positive ionotropic effect on the heart muscle: same concentration as smooth muscle relaxant (IC50 concentration; 3.25 x 10⁻⁹M for Compound 11)
[4] = General pharmacological screening: anti-ulcer stressic activity; conditions: result in words
[5] = test system: angiotensin; assay: In-vitro angiotensin inhibitory activity; assay type: biochemical; conditions: for angiotensin inhibitory activity: general pharmacological screening, result in words
[6] = test system: LTD₄; assay: General pharmacological screening: LTD4 antagonistic activity; conditions: result in words
[7] = test system: SHR Rat; assay: Blood pressure and heart rate in SHR Rat; assay type: in vivo; conditions: 0.2mg/Kg
[8] = test system: heart muscle; conditions: in the concentration of its smooth muscle calcium channel blocking effectiveness; cited from earlier work
[9] = Cavia porcellus, read-out: IC₅₀ as a calcium antagonist in smooth muscle
[10] = Cavia porcellus, exponent (x 10⁻⁹), carbachol 5x10⁻⁷M, tonic component, triplicate, read-out: calcium channel antagonist act., inhib. act. on contractile Response to CD ID₅₀

COC(=O)C1=C(C)NC(C)=C(C(=O)OCCCCCCn2nc(C)cc2C)C1c1cccc([N+](=O)[O-])c1 (centres unmarked)
anti-inflammatory activity [1]: very strong

COC(=O)C1=C(C)NC(C)=C(C(=O)OCCCCCCS(=O)(=O)c2nc(C)cs2)C1c1cccc([N+](=O)[O-])c1 (centres unmarked) [listing 1 of 2 here]
IC50 [2, 9]: 5.57 nM

COC(=O)C1=C(C)NC(C)=C(C(=O)OCCCCCCS(=O)(=O)c2nc(C)cs2)C1c1cccc([N+](=O)[O-])c1 (centres unmarked) [listing 2 of 2 here]
heart contractile force [3]: increase the heart contractile force
heart rate [3]: without changing the heart rate

COC(=O)C1=C(C)NC(C)=C(C(=O)OCCCCCCCc2cc(C)no2)C1c1cccc([N+](=O)[O-])c1 (centres unmarked)
anti-ulcer stressic activity [4]: very strong
angiotensin inhibitory activity [5]: very strong
LTD₄ antagonistic activity [6]: very strong

COC(=O)C1=C(C)NC(C)=C(C(=O)OCCCCCCCc2nc(C)cs2)C1c1cccc(C(F)(F)F)c1 (centres unmarked)
anti-inflammatory activity [1]: very strong

COC(=O)C1=C(C)NC(C)=C(C(=O)OCCCCCCCc2nc(C)cs2)C1c1cccc(Cl)c1 (centres unmarked)
anti-ulcer stressic activity [4]: very strong
angiotensin inhibitory activity [5]: very strong
LTD₄ antagonistic activity [6]: very strong

COC(=O)C1=C(C)NC(C)=C(C(=O)OCCCCCCCc2nc(C)cs2)C1c1cccc([N+](=O)[O-])c1 (centres unmarked)
IC50 [2, 9]: 3.25 ± 0.33 nM
relative potency compared with Nifedipine [2]: 4.3
heart contractile force [3]: increase the heart contractile force
heart rate [3]: without changing the heart rate

COC(=O)C1=C(C)NC(C)=C(C(=O)OCCCCCCS(=O)(=O)c2nc(C)cs2)C1c1cccc([N+](=O)[O-])c1 (centres unmarked) [3-[6-(4-methylthiazol-2-yl)sulfonylhexyloxycarbonyl]-5-metho]
relative potency compared with Nifedipine [2]: 2.5
positive ionotropic effect on the heart muscle [3]: about 22%

C[C@H](CS)C(=O)N1CCC[C@H]1C(=O)O [Captopril, reference compound]
Percent Inhibition ([5]; Concentration 0.05 µg/ml): 69%

COC(=O)C1=C(C)NC(C)=C(C(=O)OCCCCCCCc2cc(C)no2)C1c1cccc([N+](=O)[O-])c1 (centres unmarked) [Compound 1, 3-[7-(3-methylisoxazol-5-yl)heptyloxycarbonyl]-5-methoxycarbonyl-2,6-dimethyl-4-(3-nitrophenyl)-1,4-dihydropyridine]
IC50 [2, 10]: 3.84 nM
Percent Inhibition ([5]; Concentration 0.01 µg/ml): 93%
Percent Inhibition ([5]; concentration of 0.0025 µg): 60%

COC(=O)C1=C(C)NC(C)=C(C(=O)OCCCCCCCc2cc(C)no2)C1c1cccc(C(F)(F)F)c1 (centres unmarked) [Compound 3, 3-[7-(3-mehylisoxazol-5-yl)heptyloxycarbonyl]-5-methoxycarbonyl-2,6-dimethyl-4-(3-trifluoromethylphenyl)-1,4-dihydropyridine]
IC50 ([2]; exponent (x 10⁻⁹), carbachol 5x10⁻⁷M, tonic component, triplicate, read-out: calcium channel antagonist act., inhib. act. on contractile Response to CD ID₅₀): 5.13 nM

COC(=O)C1=C(C)NC(C)=C(C(=O)OCCCCCCn2nc(C)cc2C)C1c1cccc([N+](=O)[O-])c1 (centres unmarked) [Compound 5, 3-[6-(3,5-dimethylpyrazol-1-yl)hexyloxycarbonyl]-5-methoxycarbonyl-2,6-dimethyl-4-(3-nitrophenyl)-1,4-dihydropyridine]
IC50 [2, 10]: 6.24 nM
Percent Inhibition ([5]; Concentration 0.01 µg/ml): 95%
Percent Inhibition ([5]; concentration of 0.001 µg): 58%

COC(=O)C1=C(C)NC(C)=C(C(=O)OCCCCCCCc2nc(C)cs2)C1c1cccc([N+](=O)[O-])c1 (centres unmarked) [Compound 11, 3-[7-(4-methylthiazol-2-yl)heptyloxycarbonyl]-5-methoxycarbonyl-2,6-dimethyl-4-(3-nitrophenyl)-1,4-dihydropyridine]
drop in blood pressure [7]: 19%
heart rate [7]: without changing the heart rate
period of drop in blood pressure [7]: 9 h
IC50 [2, 10]: 3.25 nM
positive ionotropic effect on the heart muscle [3]: about 12%

COC(=O)C1=C(C)NC(C)=C(C(=O)OCCCCCCCc2nc(C)cs2)C1c1cccc(C(F)(F)F)c1 (centres unmarked) [Compound 13, 3-[7-(4-methylthiazol-2-yl)heptyloxycarbonyl]-5-methoxycarbonyl-2,6-dimethyl-4-(3-trifluoromethylphenyl)-1,4-dihydropyridine]
Percent Inhibition ([5]; Concentration 0.1 µg/ml): 80%

COC(=O)C1=C(C)NC(C)=C(C(=O)OCCCCCCCc2nc(C)cs2)C1c1cccc(Cl)c1 (centres unmarked) [Compound 15, 3-[7-(4-methylthiazol-2-yl)heptyloxycarbonyl]-5-methoxycarbonyl-2,6-dimethyl-4-(3-chlorophenyl)-1,4-dihydropyridine]
IC50 [2, 10]: 6.25 nM
Percent Inhibition ([5]; Concentration 0.1 µg/ml): 64%

COC(=O)C1=C(C)NC(C)=C(C(=O)OCCCCCCCc2nc(C)cs2)C1c1cccc(Cl)c1Cl (centres unmarked) [Compound 17, 3-[7-(4-methylthiazol-2-yl)heptyloxycarbonyl]-5-methoxycarbonyl-2,6-dimethyl-4-(2,3-dichlorophenyl)-1,4-dihydropyridine]
IC50 ([2]; Cavia porcellus, exponent printed in neighbouring spread cell (x 10⁻⁸), carbachol 5x10⁻⁷M, tonic component, triplicate, read-out: calcium channel antagonist act., inhib. act. on contractile Response to CD ID₅₀): 48.1 nM

COC(=O)C1=C(C)NC(C)=C(C(=O)OCCCCCCSc2nc(C)cs2)C1c1cccc([N+](=O)[O-])c1 (centres unmarked) [Compound 18, 3-[6-(4-methylthiazol-2-yl)thiohexyloxycarbonyl]-5-methoxycarbonyl-2,6-dimethyl-4-(3-nitrophenyl)-1,4-dihydropyridine]
IC50 [2, 10]: 5.48 nM

COC(=O)C1=C(C)NC(C)=C(C(=O)OCCCCCCS(=O)(=O)c2nc(C)cs2)C1c1cccc([N+](=O)[O-])c1 (centres unmarked) [Compound 19, 3-[6-(4-methylthiazol-2-yl)sulfonylhexyloxycarbonyl]-5-methoxycarbonyl-2,6-dimethyl-4-(3-nitrophenyl)-1,4-dihydropyridine]
IC50 [2, 10]: 5.81 nM
positive ionotropic effect on the heart muscle [3]: 25%

CCOC(=O)C1=C(C)NC(C)=C(C(=O)OC)C1c1cccc(Cl)c1Cl (centres unmarked) [Felodipine, 3-ethoxycarbonyl-5-methoxycarbonyl-4-(2,3-dichlorophenyl)-2,6-dimethyl-1,4-dihydropyridine]
effect on the heart [8]: no effect on the heart
